Data published in US20250009716A1, “NOVEL INHIBITORS OF CLAUDIN-1 FOR THERAPEUTIC INTERVENTIONS” (BOARD OF REGENTS OF THE UNIVERSITY OF NEBRASKA, priority 2021, published 2025).
“Also recorded” adds a separate entry of the source.

Columns and labels:
SW480claudin-1 cells [1] = assay: Resistance to anoikis in claudin-1 overexpressing cells; type: cell-based; conditions: for effect on resistance to anoikis: 72 h treatment; for activity: FIG. 9, printed only as 'activity', kind of value not named
Excerpt: (§1) The crystal structure of claudin-1 is unknown. Therefore, an in-silico protein folding program, YASARA, was used to identify an effective claudin-1 inhibitor. The resultant 3D-structure was then modeled using Molegro Virtual Docker (MVD) software program. These in-silico analyses identified putative cavities in the claudin-1 protein that can be targeted by small molecule inhibitors. Next, a 100K library of small molecules was screened in silico using the MVD. The top 10 inhibitors that bound to the Site #3 (targeting near c-terminal domain; the most accessible pocket; FIG. 2A) with the best binding energies were selected as hits and used for further testing. Screening of these inhibitors named Inihibitor-1 (1-1) to Inhibitor-10 (I-10) was done using SW480claudin-1, SW620 and control cells. Claudin-1 deficient HCT116 cells (WT-APC) or SW620shRNAcld-1 were used as negative controls. Resistance to anoikis and cell invasion was used as biological end-points in testing these inhibitors. […] 16 has the following structure:
(§2) To this end, a library of molecules was synthesized in order to develop an initial SAR evaluation. The first compounds tested eliminated the acylated (thio) urea as well as the napthyl group and evaluated just the urea/phenyl compounds (Compounds 1-6). The methoxy group of the naphthalene ring system was needed when the benzimidazole group was present (16 vs. Compound 8). […] The result of metabolic stability was expressed as the percentage of drug remaining at each time. […] To further determine the effect of PDS-0330 on p-Src expression and association, cells were treated with Compound 1, 16 and PDS-0330. Expression and association with p-Src was unaffected with Compound 1 (negative control). The specificity of PDS-0330 for CLDN1 was further confirmed by treating SW480^CLDN1, HCT116^CLDN2 (overexpressing another tight junction protein) or normal IEC-6 cells with PDS-0330 (FIG. 12).

SW480claudin-1 cells [2] = assay: Cell invasion assay; type: cell-based
Excerpt: as §1
To this end, a library of molecules was synthesized in order to develop an initial SAR evaluation. The first compounds tested eliminated the acylated (thio) urea as well as the napthyl group and evaluated just the urea/phenyl compounds (Compounds 1-6). […] The result of metabolic stability was expressed as the percentage of drug remaining at each time. […]

[3] = test system: SW480claudin-1 cells xenograft tumors; assay: SW480claudin-1 xenograft tumor growth; type: in vivo
Protocol: (A) In-silico 3D-structure of claudin-1, cavities that can be targeted by small molecules were defined using Molegro Virtual Docker. (B) Cell survival assay showing effects of three different inhibitors (I1, I2 and 16). […] (C) Effect of 16 treatment (72 hours) upon resistance to anoikis in claudin-1 overexpressing SW480 cells and claudin-1 deficient HCT116 cells. (D) Effect of 16 treatment on cell invasion in SW480claudin-1 cells. (E) Effect of inhibitor 16 on xenograft tumors. […] Effect on tumor growth was monitored.
Tumor volume and weight were measured.
In vivo validation of the anti-tumorigenic and metastatic effects of 1-6 treatment: (i) Xenograft model. […] These studies are elaborated using claudin-1 positive (HT29, DLD-1, SW620 cells) and negative (HCT116, SW620ShRNA) for similar xenograft tumor growth studies (15,50). Luciferin expressing cells (established in our lab) are used to help examining longitudinal growth of these tumors using live mouse imaging.

[4] = target: T1, claudin-1/Src complex in SW480claudin-1 cells (Homo sapiens, UniProt O95832); assay: Claudin-1/Src association (proximity ligation assay, Co-IP); type: cell-based; conditions: PLA, Co-IP or immuno-precipitation
T1 construct: claudin-1 was expressed in a non-metastatic CRC cell line, SW480 cells; expressed in transfected cells; host or cells: SW480 colorectal cancer cells expressing claudin-1 (SW480claudin-1)
T1 sequence (O95832 1-211): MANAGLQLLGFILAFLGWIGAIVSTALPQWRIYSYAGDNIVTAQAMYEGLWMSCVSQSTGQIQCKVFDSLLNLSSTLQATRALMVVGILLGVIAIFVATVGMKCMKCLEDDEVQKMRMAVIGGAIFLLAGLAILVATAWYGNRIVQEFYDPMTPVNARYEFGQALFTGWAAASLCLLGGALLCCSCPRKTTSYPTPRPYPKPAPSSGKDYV
Excerpt: The CSC cells contribute to the generation of metastasis (16-19), and key CSC characteristics are highly relevant to metastasis, including invasive motility, and, resistance to apoptosis (20,21). […] Considering that chemoresistance is central to the CRC progression and metastasis, we further tested if adjuvant use of 16 with 5FU can have significant bearing upon these traits. Colon cancer cells were subjected to exogenous administration of 16 alone, or in combination with the 5-FU, the conventional anti-CRC drug. […] To further determine the mechanistic details the effect of 16 on association of claudin-1 and Src, SW480claudin-1 cells were treated with 16 or the vehicle and resultant cell lysate was subjected to Proximity ligation assay (PLA) or Co—IP.

[5] = test system: p-Src and c-PARP in SW480claudin-1 overexpressing cells; assay: Expression of p-Src, Src and c-PARP; type: cell-based
Excerpt: as §2
(§3) Furthermore, DLD-1 chemoresistant cells were treated with PDS-0330 and I-6. […] Based on the in vitro activity and metabolic stability, PDS-0330, and any potential new analogs will be evaluated in animal models to determine the pharmacokinetic properties and biodistribution as described in preliminary data.

[6] = test system: DLD-1 chemoresistant cells; assay: p-Src and c-PARP expression in 5FU resistant cells; type: cell-based
Protocol: as §3

HCT116CLDN2 cells = assay: Cell viability, specificity for CLDN1; type: cell-based; conditions: cells overexpressing another tight junction protein
Protocol: (§4) SW480^claudin-1, IEC-6 (normal cells), and HCT116^CLDN2 cells were treated with different concentrations of PDS-0330 and cell viability was determined.
as §2

IEC-6 (normal cells) = assay: Cell viability, specificity for CLDN1; type: cell-based
Protocol: as §4, §2

SW480CLDN1 cells = assay: Cell viability, specificity for CLDN1; type: cell-based
Protocol: as §4, §2

[7] = test system: p-Src and p-EphA2 in SW480claudin-1 cells; assay: Phosphorylation of Src and EphA2 versus dasatinib; type: cell-based
Protocol: Effects on (A) phosphorylation of Src and EphA2 and (B) cell survival (MTT assay) were determined.

[8] = Blood urea nitrogen (BUN) toxicity measurement; parameters: species or system mice; conditions: mouse, in vivo
Excerpt: Data are expressed as means±SEM (n=5 mice/group).

| SMILES | effect on resistance to anoikis (SW480claudin-1 cells [1]) | activity (SW480claudin-1 cells [1]) | effect on cell invasion (SW480claudin-1 cells [2]) | growth of xenograft tumors ([3]; 16 i.p. 10 mg/kg) | toxic effects on xenograft mice ([3]; 16 i.p. 10 mg/kg) | claudin-1/Src (p-Src) association [4] | apoptosis (c-PARP) [5] | p-Src expression [5] | apoptosis (c-PARP) [6] | p-Src expression [6] | activity improvement of PDS-0330 over 16 (SW480claudin-1 cells [1]; 8.4 μM vs. 28.4 μM) | xenograft tumor growth ([3]; PDS-0330 ip, 2.5, 5 mg/kg) | effect on cell viability (HCT116CLDN2 cells) | effect on cell viability (IEC-6 (normal cells)) | percentage of dead cells (SW480CLDN1 cells) | p-EphA2 and p-Src expression [7] | cytotoxic effect by blood urea nitrogen (BUN) [8] |
| --- | --- | --- | --- | --- | --- | --- | --- | --- | --- | --- | --- | --- | --- | --- | --- | --- | --- |
| COc1cc2ccccc2cc1C(=O)NC(=S)Nc1ccc(-c2nc3ccccc3[nH]2)cc1 [Compound 16] | most effective | 28.4 µM | most effective | significantly inhibited | did not observe any toxic effects | markedly suppressed; also recorded: reduced | increased apoptosis (c-PARP) | reduced p-Src expression | increase in apoptosis (c-PARP) | decrease in p-Src expression |  |  |  |  |  |  |  |
| O=C(NC(=S)Nc1ccc(-c2nc3ccccc3o2)cc1)c1ccc2ccccc2c1 [PDS-0330] | most potent compound; also recorded: significantly inhibited | 8.4 µM | significantly inhibited |  |  | most potent effects; also recorded: inhibits Src association | most potent effects | most potent effects | increase in apoptosis (c-PARP) | decrease in p-Src expression | ~3 fold | decrease in xenograft tumor growth | not affected | not affected | significant increase in the percentage of dead cells | inhibited p-EphA2 expression along with p-Src; also recorded: more effective in inhibiting cell survival and p-EphA2 expression | no cytotoxic effect in mice |
